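Assay format: 96-well plates, 48-hour exposure. GI50 marks 50% less growth.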 Activity calls are given as the source filed them. Rule as the data show it: active = GI50 up to about 1.1 µM and inactive = higher.
Columns and labels:
Test in all cases: growth of human tumour cells (NCI), 48 h
CAKI-1 = tested on: CAKI-1
CCRF-CEM = tested on: CCRF-CEM
EKVX = tested on: EKVX
HCC 2998 = tested on: HCC 2998
HCT-116 = tested on: HCT-116
HOP-62 = tested on: HOP-62
IGROV-1 = tested on: IGROV-1
LOX IMVI = tested on: LOX IMVI
MDA-MB-435 = tested on: MDA-MB-435
MDA-N = tested on: MDA-N
NCI-H226 = tested on: NCI-H226
NCI-H460 = tested on: NCI-H460
NCI-H522 = tested on: NCI-H522
NCI/ADR-RES = tested on: NCI/ADR-RES
OVCAR-5 = tested on: OVCAR-5
RXF 393 = tested on: RXF 393
SK-MEL-28 = tested on: SK-MEL-28
TK-10 = tested on: TK-10
UACC-257 = tested on: UACC-257
UO-31 = tested on: UO-31

Q: For O=C(CCl)Nc1ccc(C(=O)N/N=C/c2ccc(Cl)cc2)cc1, which GI50 (CAKI-1) is on record?
A: 2820 nM (inactive)

Q: And the GI50 (CCRF-CEM)?
A: 1820 nM (inactive)

Q: And the GI50 (EKVX)?
A: 2190 nM (inactive)

Q: What about the GI50 (HCC 2998) of the same compound?
A: 9330 nM (inactive)

Q: What about the GI50 (HCT-116) of the same compound?
A: 1800 nM (inactive)

Q: And the GI50 (HOP-62)?
A: 3520 nM (inactive)

Q: And the GI50 (IGROV-1)?
A: 728 nM (active)

Q: And the GI50 (LOX IMVI)?
A: 1480 nM (inactive)

Q: What about the GI50 (MDA-MB-435) of the same compound?
A: 1820 nM (inactive)

Q: And the GI50 (MDA-N)?
A: 1830 nM (inactive)

Q: And the GI50 (NCI-H226)?
A: 18600 nM (inactive)

Q: What about the GI50 (NCI-H460) of the same compound?
A: 2000 nM (inactive)

Q: What about the GI50 (NCI-H522) of the same compound?
A: 1750 nM (inactive)

Q: What about the GI50 (NCI/ADR-RES) of the same compound?
A: 2370 nM (inactive)

Q: What about the GI50 (OVCAR-5) of the same compound?
A: 18800 nM (inactive)

Q: What about the GI50 (RXF 393) of the same compound?
A: 946 nM (active)

Q: And the GI50 (SK-MEL-28)?
A: 5680 nM (inactive)

Q: What about the GI50 (TK-10) of the same compound?
A: 15900 nM (inactive)

Q: What about the GI50 (UACC-257) of the same compound?
A: 1670 nM (inactive)

Q: What about the GI50 (UO-31) of the same compound?
A: 4460 nM (inactive)

Q: What does the source list for CC(C)c1cc(CN(C)C)c(O)c(C(C)(C)C)c1?
A: GI50 (CAKI-1): 23100 nM (inactive); GI50 (CCRF-CEM): 16400 nM (inactive); GI50 (EKVX): 28700 nM (inactive); GI50 (HCC 2998): 16100 nM (inactive); GI50 (HCT-116): 36900 nM (inactive); GI50 (HOP-62): 22800 nM (inactive); GI50 (IGROV-1): 47100 nM (inactive); GI50 (LOX IMVI): 17400 nM (inactive); GI50 (MDA-MB-435): 36300 nM (inactive); GI50 (MDA-N): 26600 nM (inactive); GI50 (NCI-H226): 21500 nM (inactive); GI50 (NCI-H460): 17300 nM (inactive); GI50 (NCI-H522): 15900 nM (inactive); GI50 (NCI/ADR-RES): 65300 nM (inactive); GI50 (OVCAR-5): > 100000 nM (inactive); GI50 (RXF 393): 18800 nM (inactive); GI50 (SK-MEL-28): 28100 nM (inactive); GI50 (TK-10): 35100 nM (inactive); GI50 (UACC-257): 15300 nM (inactive); GI50 (UO-31): 23100 nM (inactive)

Q: With CN(C)CCn1c(=O)c2ccc(NCCCN(C)CCCNc3ccc4c(=O)n(CCN(C)C)c(=O)n5c6ccc(O)cc6c(=O)c3c45)c3c(=O)c4cc(O)ccc4n(c1=O)c23 as the compound, how does the GI50 (CAKI-1) read?
A: < 10 nM (active)

Q: And the GI50 (CCRF-CEM)?
A: < 10 nM (active)

Q: And the GI50 (EKVX)?
A: 93.3 nM (active)

Q: And the GI50 (HCC 2998)?
A: < 15.1 nM (active)

Q: What about the GI50 (HCT-116) of the same compound?
A: < 10 nM (active)

Q: And the GI50 (HOP-62)?
A: < 32 nM (active)

Q: What about the GI50 (IGROV-1) of the same compound?
A: < 10 nM (active)

Q: And the GI50 (LOX IMVI)?
A: < 10 nM (active)

Q: And the GI50 (MDA-MB-435)?
A: < 10 nM (active)

Q: And the GI50 (MDA-N)?
A: < 33.7 nM (active)

Q: What about the GI50 (NCI-H226) of the same compound?
A: < 10 nM (active)

Q: What about the GI50 (NCI-H460) of the same compound?
A: < 10 nM (active)

Q: And the GI50 (NCI-H522)?
A: < 10 nM (active)

Q: What about the GI50 (NCI/ADR-RES) of the same compound?
A: 181 nM (active)

Q: And the GI50 (OVCAR-5)?
A: 44.2 nM (active)

Q: What about the GI50 (RXF 393) of the same compound?
A: < 12.5 nM (active)

Q: And the GI50 (SK-MEL-28)?
A: 84.1 nM (active)

Q: What about the GI50 (TK-10) of the same compound?
A: < 12.6 nM (active)

Q: What about the GI50 (UACC-257) of the same compound?
A: 181 nM (active)

Q: And the GI50 (UO-31)?
A: 10.7 nM (active)

Q: How did the GI50 (CAKI-1) turn out when O=C(O)c1nc(-c2ccccn2)c(-c2ccccn2)nc1C(=O)O was run?
A: 2920 nM (inactive)

Q: And the GI50 (CCRF-CEM)?
A: 2440 nM (inactive)

Q: And the GI50 (EKVX)?
A: 1880 nM (inactive)

Q: What about the GI50 (HCC 2998) of the same compound?
A: 773 nM (active)

Q: And the GI50 (HCT-116)?
A: 1670 nM (inactive)

Q: And the GI50 (HOP-62)?
A: 2150 nM (inactive)

Q: What about the GI50 (IGROV-1) of the same compound?
A: 3500 nM (inactive)

Q: What about the GI50 (LOX IMVI) of the same compound?
A: 2070 nM (inactive)

Q: And the GI50 (MDA-MB-435)?
A: 3620 nM (inactive)

Q: What about the GI50 (MDA-N) of the same compound?
A: 2200 nM (inactive)

Q: What about the GI50 (NCI-H226) of the same compound?
A: 1700 nM (inactive)

Q: And the GI50 (NCI-H460)?
A: 719 nM (active)

Q: And the GI50 (NCI-H522)?
A: 4280 nM (inactive)

Q: And the GI50 (NCI/ADR-RES)?
A: 2750 nM (inactive)

Q: What about the GI50 (OVCAR-5) of the same compound?
A: 3010 nM (inactive)

Q: And the GI50 (RXF 393)?
A: 2310 nM (inactive)

Q: What about the GI50 (SK-MEL-28) of the same compound?
A: 1200 nM (inactive)

Q: What about the GI50 (TK-10) of the same compound?
A: 3480 nM (inactive)

Q: And the GI50 (UACC-257)?
A: 4350 nM (inactive)

Q: What about the GI50 (UO-31) of the same compound?
A: 1640 nM (inactive)

Q: Which results are given for Cc1cc(O)c2c(c1)C(C1c3cccc(O)c3C(=O)c3c(O)cc(C)cc31)c1cccc(O)c1C2=O (stereo not given)?
A: GI50 (CAKI-1): 2860 nM (inactive); GI50 (CCRF-CEM): 906 nM (active); GI50 (EKVX): 417 nM (active); GI50 (HCC 2998): 1100 nM (active); GI50 (HCT-116): 314 nM (active); GI50 (HOP-62): 432 nM (active); GI50 (IGROV-1): 378 nM (active); GI50 (LOX IMVI): 354 nM (active); GI50 (MDA-MB-435): 340 nM (active); GI50 (MDA-N): 705 nM (active); GI50 (NCI-H226): 605 nM (active); GI50 (NCI-H460): 198 nM (active); GI50 (NCI-H522): 417 nM (active); GI50 (NCI/ADR-RES): 319 nM (active); GI50 (OVCAR-5): 766 nM (active); GI50 (RXF 393): 220 nM (active); GI50 (SK-MEL-28): 394 nM (active); GI50 (TK-10): 598 nM (active); GI50 (UACC-257): 300 nM (active); GI50 (UO-31): 306 nM (active)

Q: What does the source list for CN(C)CCNC(=O)c1ccc(NCCCN(C)CCCNc2ccc3c(=O)n(CCN(C)C)c(=O)n4c5ccccc5c(=O)c2c34)c2c(O)c3ccccc3nc12?
A: GI50 (CAKI-1): 25.8 nM (active); GI50 (CCRF-CEM): < 10 nM (active); GI50 (EKVX): 160 nM (active); GI50 (HCC 2998): < 10 nM (active); GI50 (HCT-116): < 10 nM (active); GI50 (HOP-62): < 10 nM (active); GI50 (IGROV-1): < 10 nM (active); GI50 (LOX IMVI): < 10 nM (active); GI50 (MDA-MB-435): 12.4 nM (active); GI50 (MDA-N): 33.2 nM (active); GI50 (NCI-H226): < 21.4 nM (active); GI50 (NCI-H460): < 10 nM (active); GI50 (NCI-H522): 10.2 nM (active); GI50 (NCI/ADR-RES): 221 nM (active); GI50 (OVCAR-5): 19.2 nM (active); GI50 (RXF 393): 75 nM (active); GI50 (SK-MEL-28): 234 nM (active); GI50 (TK-10): 47.1 nM (active); GI50 (UACC-257): 162 nM (active); GI50 (UO-31): < 10 nM (active)
